Data as given in PubChem BioAssay (NCI).
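A five-concentration, 48-hour dose response in 96-well plates underlies each endpoint, interpolated linearly between surrounding concentrations. TGI marks complete inhibition of growth.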

Assays:
Test in all cases: NCI tumour cell line growth inhibition, 48 h
786-0 renal = tested on: 786-0 renal
A498 renal = tested on: A498 renal
A549 NSCLC = tested on: A549 NSCLC
ACHN renal = tested on: ACHN renal
CAKI-1 renal = tested on: CAKI-1 renal
CCRF-CEM leukemia = tested on: CCRF-CEM leukemia
COLO 205 colon = tested on: COLO 205 colon
DU-145 prostate = tested on: DU-145 prostate
EKVX NSCLC = tested on: EKVX NSCLC
HCC-2998 colon = tested on: HCC-2998 colon
HCT-116 colon = tested on: HCT-116 colon
HCT-15 colon = tested on: HCT-15 colon
HL-60(TB) leukemia = tested on: HL-60(TB) leukemia
HOP-62 NSCLC = tested on: HOP-62 NSCLC
HS 578T breast = tested on: HS 578T breast
HT29 colon = tested on: HT29 colon
IGROV1 ovarian = tested on: IGROV1 ovarian
K-562 leukemia = tested on: K-562 leukemia
M14 melanoma = tested on: M14 melanoma
MALME-3M melanoma = tested on: MALME-3M melanoma
MDA-MB-231 breast = tested on: MDA-MB-231 breast
MDA-MB-435 = tested on: MDA-MB-435
MDA-N = tested on: MDA-N
MOLT-4 leukemia = tested on: MOLT-4 leukemia
NCI-H226 lung = tested on: NCI-H226 lung
NCI-H23 lung = tested on: NCI-H23 lung
NCI/ADR-RES ovarian = tested on: NCI/ADR-RES ovarian
OVCAR-3 ovarian = tested on: OVCAR-3 ovarian
OVCAR-4 ovarian = tested on: OVCAR-4 ovarian
OVCAR-5 ovarian = tested on: OVCAR-5 ovarian
OVCAR-8 ovarian = tested on: OVCAR-8 ovarian
PC-3 prostate = tested on: PC-3 prostate
RPMI-8226 leukemia = tested on: RPMI-8226 leukemia
RXF 393 renal = tested on: RXF 393 renal
SF-268 CNS = tested on: SF-268 CNS
SF-295 CNS = tested on: SF-295 CNS
SF-539 CNS = tested on: SF-539 CNS
SK-MEL-2 melanoma = tested on: SK-MEL-2 melanoma
SK-MEL-28 melanoma = tested on: SK-MEL-28 melanoma
SK-MEL-5 melanoma = tested on: SK-MEL-5 melanoma
SN12C renal = tested on: SN12C renal
SNB-19 CNS = tested on: SNB-19 CNS
SNB-75 CNS = tested on: SNB-75 CNS
SR leukemia = tested on: SR leukemia
SW-620 colon = tested on: SW-620 colon
T-47D breast = tested on: T-47D breast
TK-10 renal = tested on: TK-10 renal
UACC-257 melanoma = tested on: UACC-257 melanoma
UACC-62 melanoma = tested on: UACC-62 melanoma
UO-31 renal = tested on: UO-31 renal
HOP-92 NSCLC = tested on: HOP-92 NSCLC
KM12 colon = tested on: KM12 colon
LOX IMVI melanoma = tested on: LOX IMVI melanoma
MCF7 breast = tested on: MCF7 breast
NCI-H460 lung = tested on: NCI-H460 lung
NCI-H522 lung = tested on: NCI-H522 lung
SK-OV-3 ovarian = tested on: SK-OV-3 ovarian
U251 CNS = tested on: U251 CNS

COC(=O)c1c(C(=O)OC)c2ccccn2c1-c1cc(C)cc2c1C(=O)C=CC2=O
TGI (786-0 renal): 11.3 µM | TGI (A498 renal): 17.5 µM | TGI (A549 NSCLC): 25.7 µM | TGI (ACHN renal): 17.2 µM | TGI (CAKI-1 renal): 12.4 µM | TGI (CCRF-CEM leukemia): 3.65 µM | TGI (COLO 205 colon): 13.4 µM | TGI (DU-145 prostate): 20.1 µM | TGI (EKVX NSCLC): 21.7 µM | TGI (HCC-2998 colon): 20.1 µM | TGI (HCT-116 colon): 15.7 µM | TGI (HCT-15 colon): 15.6 µM | TGI (HL-60(TB) leukemia): 5.04 µM | TGI (HOP-62 NSCLC): 21.7 µM | TGI (HS 578T breast): 24.2 µM | TGI (HT29 colon): 16.6 µM | TGI (IGROV1 ovarian): 17.3 µM | TGI (K-562 leukemia): 7.63 µM | TGI (M14 melanoma): 14.5 µM | TGI (MALME-3M melanoma): 15 µM | TGI (MDA-MB-231 breast): 15.9 µM | TGI (MDA-MB-435): 16 µM | TGI (MDA-N): 15.3 µM | TGI (MOLT-4 leukemia): 3.76 µM | TGI (NCI-H226 lung): 19.7 µM | TGI (NCI-H23 lung): 14.8 µM | TGI (NCI/ADR-RES ovarian): 27.8 µM | TGI (OVCAR-3 ovarian): 15.6 µM | TGI (OVCAR-4 ovarian): 18.8 µM | TGI (OVCAR-5 ovarian): 16.9 µM | TGI (OVCAR-8 ovarian): 14.4 µM | TGI (PC-3 prostate): 18.5 µM | TGI (RPMI-8226 leukemia): 8.9 µM | TGI (RXF 393 renal): 18.5 µM | TGI (SF-268 CNS): 20.8 µM | TGI (SF-295 CNS): 18 µM | TGI (SF-539 CNS): 15.7 µM | TGI (SK-MEL-2 melanoma): 17.2 µM | TGI (SK-MEL-28 melanoma): 17.9 µM | TGI (SK-MEL-5 melanoma): 17 µM | TGI (SN12C renal): 17.6 µM | TGI (SNB-19 CNS): 18.6 µM | TGI (SNB-75 CNS): 23.6 µM | TGI (SR leukemia): 8.53 µM | TGI (SW-620 colon): 8.21 µM | TGI (T-47D breast): 7.83 µM | TGI (TK-10 renal): 18.4 µM | TGI (UACC-257 melanoma): 13.6 µM | TGI (UACC-62 melanoma): 17.7 µM | TGI (UO-31 renal): 6.05 µM

Cc1cccc2c(=O)c3cccc(CC(=O)O)c3oc12
TGI (786-0 renal): > 100 µM | TGI (A498 renal): > 100 µM | TGI (A549 NSCLC): > 100 µM | TGI (ACHN renal): > 100 µM | TGI (CAKI-1 renal): > 100 µM | TGI (CCRF-CEM leukemia): > 100 µM | TGI (COLO 205 colon): > 100 µM | TGI (EKVX NSCLC): > 100 µM | TGI (HCC-2998 colon): > 100 µM | TGI (HCT-116 colon): > 100 µM | TGI (HCT-15 colon): > 100 µM | TGI (HL-60(TB) leukemia): > 100 µM | TGI (HOP-62 NSCLC): > 100 µM | TGI (HOP-92 NSCLC): > 100 µM | TGI (HS 578T breast): > 100 µM | TGI (HT29 colon): > 100 µM | TGI (IGROV1 ovarian): > 100 µM | TGI (K-562 leukemia): > 100 µM | TGI (KM12 colon): > 100 µM | TGI (LOX IMVI melanoma): > 100 µM | TGI (M14 melanoma): > 100 µM | TGI (MALME-3M melanoma): > 100 µM | TGI (MCF7 breast): > 100 µM | TGI (MDA-MB-231 breast): > 100 µM | TGI (MDA-MB-435): > 100 µM | TGI (MDA-N): > 100 µM | TGI (MOLT-4 leukemia): > 100 µM | TGI (NCI-H226 lung): > 100 µM | TGI (NCI-H23 lung): > 100 µM | TGI (NCI-H460 lung): > 100 µM | TGI (NCI-H522 lung): > 100 µM | TGI (NCI/ADR-RES ovarian): > 100 µM | TGI (OVCAR-3 ovarian): > 100 µM | TGI (OVCAR-4 ovarian): > 100 µM | TGI (OVCAR-8 ovarian): > 100 µM | TGI (PC-3 prostate): > 100 µM | TGI (RPMI-8226 leukemia): > 100 µM | TGI (SF-268 CNS): > 100 µM | TGI (SF-295 CNS): > 100 µM | TGI (SF-539 CNS): > 100 µM | TGI (SK-MEL-2 melanoma): > 100 µM | TGI (SK-MEL-28 melanoma): > 100 µM | TGI (SK-MEL-5 melanoma): > 100 µM | TGI (SK-OV-3 ovarian): > 100 µM | TGI (SN12C renal): > 100 µM | TGI (SNB-19 CNS): > 100 µM | TGI (SR leukemia): > 100 µM | TGI (SW-620 colon): > 100 µM | TGI (T-47D breast): > 100 µM | TGI (TK-10 renal): > 100 µM | TGI (U251 CNS): > 100 µM | TGI (UACC-257 melanoma): > 100 µM | TGI (UACC-62 melanoma): > 100 µM | TGI (UO-31 renal): > 100 µM
